Reference: patent publication US20260097090A1, “HERBAL MEDICINE EXTRACTS RM01 AND USES AND METHODS OF PREPARATION THEREOF” (RenuMemo Therapeutics LLC, priority 2022, published 2026)

System: patient with severe Alzheimer's disease
Assay: Human efficacy case study, Mini Mental State Examination (MMSE) and family report
Format: in vivo
Conditions: same patient, long time taking Memantine and Donepezil before RM01; drugs stopped before the visit
Procedure: The patient has been taking Memantine and Donepezil to treat their disease. However, both drugs were stopped before the visit.
The patient was evaluated by Mini Mental State Examination (MMSE) during the first visit.
The patient was given the herbal extract composition RM01 twice a day every day, for five weeks. Family member assisted all the process.
The patient was re-evaluated of MMSE after 1 week of treatment. In the meantime, the family member was questioned on patient daily life, regarding sleep, mood, reaction to people, behavioral and psychological symptoms.
The treatment and re-evaluation lasted 5 weeks.

Row | SMILES | patient symptom improvement on prior medication, informed by the patient's spouse
1 | CC12CC3CC(C)(C1)CC(N)(C3)C2 [Memantine] | not much effect
2 | COc1cc2c(cc1OC)C(=O)C(CC1CCN(Cc3ccccc3)CC1)C2 (centres unmarked) [Donepezil] | not much effect
